# Laboratory results reported in PubChem BioAssay (NCI).
#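 Where inhibition never reached the appropriate level, the endpoint shown equals the highest concentration tested. Otherwise, values were interpolated linearly from a five-concentration, 48-hour dose response in 96-well plates. GI50: concentration for 50% inhibition of growth. TGI is the concentration that stops growth completely.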
# Legend:
# Test in all cases: growth of human tumour cells (NCI), 48 h
# [1] = system: TK-10 renal
# [2] = system: K-562 leukemia
# [3] = system: HCT-15 colon
# [4] = system: SK-OV-3 ovarian
# [5] = system: NCI-H23 lung
# [6] = system: OVCAR-3 ovarian
# [7] = system: SR leukemia
# [8] = system: T-47D breast
# [9] = system: 786-0 renal
# [10] = system: HT29 colon
# [11] = system: UO-31 renal
# [12] = system: MCF7 breast
# [13] = system: NCI-H522 lung
# [14] = system: SF-295 CNS
# [15] = system: NCI/ADR-RES ovarian
# [16] = system: MDA-MB-231 breast
# [17] = system: DU-145 prostate
# [18] = system: U251 CNS
# [19] = system: SNB-75 CNS
# [20] = system: UACC-257 melanoma
# [21] = system: COLO 205 colon
# [22] = system: SK-MEL-2 melanoma
# [23] = system: HOP-92 NSCLC
# [24] = system: OVCAR-8 ovarian
# [25] = system: OVCAR-5 ovarian
# [26] = system: SF-268 CNS
# [27] = system: A498 renal
# [28] = system: ACHN renal
# [29] = system: SNB-19 CNS
# [30] = system: HCT-116 colon
# [31] = system: CAKI-1 renal
# [32] = system: NCI-H226 lung
# [33] = system: HCC-2998 colon
# [34] = system: OVCAR-4 ovarian
# [35] = system: MDA-MB-435
# [36] = system: RXF 393 renal
# [37] = system: M14 melanoma
# [38] = system: A549 NSCLC
# [39] = system: SW-620 colon
# [40] = system: HS 578T breast
# [41] = system: EKVX NSCLC
# [42] = system: LOX IMVI melanoma
# [43] = system: RPMI-8226 leukemia
# [44] = system: UACC-62 melanoma
# [45] = system: SK-MEL-5 melanoma
# [46] = system: NCI-H460 lung
# [47] = system: IGROV1 ovarian
# [48] = system: BT-549 breast
# [49] = system: MOLT-4 leukemia
# [50] = system: SK-MEL-28 melanoma
# [51] = system: KM12 colon
# [52] = system: HOP-62 NSCLC
# [53] = system: HL-60(TB) leukemia
# [54] = system: SF-539 CNS
# [55] = system: PC-3 prostate
# [56] = system: SN12C renal
# [57] = system: CCRF-CEM leukemia
# [58] = system: MALME-3M melanoma
smiles,measurement,setting,value
CCOC(=O)C(=Cc1ccc(-c2ccccc2)cc1)C(=O)OCC,GI50,[1],3.91 µM
same,TGI,[1],13.3 µM
same,GI50,[2],3.17 µM
same,TGI,[2],> 100 µM
same,GI50,[3],1.93 µM
same,TGI,[3],4.84 µM
same,GI50,[4],11.7 µM
same,TGI,[4],24.8 µM
same,GI50,[5],2.22 µM
same,TGI,[5],6.34 µM
same,GI50,[6],2.86 µM
same,TGI,[6],8.18 µM
same,GI50,[7],3.13 µM
same,TGI,[7],38.3 µM
same,GI50,[8],2.02 µM
same,TGI,[8],4.74 µM
same,GI50,[9],2.06 µM
same,TGI,[9],4.16 µM
same,GI50,[10],2.04 µM
same,TGI,[10],3.88 µM
same,GI50,[11],1.71 µM
same,TGI,[11],3.29 µM
same,GI50,[12],2.69 µM
same,TGI,[12],13.2 µM
same,GI50,[13],1.68 µM
same,TGI,[13],3.38 µM
same,GI50,[14],5.22 µM
same,TGI,[14],18.4 µM
same,GI50,[15],3 µM
same,TGI,[15],8.77 µM
same,GI50,[16],2.98 µM
same,TGI,[16],7.2 µM
same,GI50,[17],3.12 µM
same,TGI,[17],11.1 µM
same,GI50,[18],1.68 µM
same,TGI,[18],5.67 µM
same,GI50,[19],3.89 µM
same,TGI,[19],16.3 µM
same,GI50,[20],3.53 µM
same,TGI,[20],9.29 µM
same,GI50,[21],3.45 µM
same,TGI,[21],11.1 µM
same,GI50,[22],3.81 µM
same,TGI,[22],11.4 µM
same,GI50,[23],2.42 µM
same,TGI,[23],6.72 µM
same,GI50,[24],2.85 µM
same,TGI,[24],> 100 µM
same,GI50,[25],2.67 µM
same,TGI,[25],6.48 µM
same,GI50,[26],3.06 µM
same,TGI,[26],11 µM
same,GI50,[27],3.74 µM
same,TGI,[27],12.8 µM
same,GI50,[28],1.83 µM
same,TGI,[28],3.42 µM
same,GI50,[29],2.21 µM
same,TGI,[29],5.14 µM
same,GI50,[30],2.13 µM
same,TGI,[30],4.91 µM
same,GI50,[31],3.24 µM
same,TGI,[31],10.8 µM
same,GI50,[32],2.4 µM
same,TGI,[32],5.21 µM
same,GI50,[33],1.89 µM
same,TGI,[33],3.54 µM
same,GI50,[34],6.3 µM
same,TGI,[34],19.9 µM
same,GI50,[35],2.55 µM
same,TGI,[35],7.57 µM
same,GI50,[36],1.95 µM
same,TGI,[36],3.74 µM
same,GI50,[37],3.14 µM
same,TGI,[37],11.1 µM
same,GI50,[38],3.61 µM
same,TGI,[38],> 100 µM
same,GI50,[39],2.07 µM
same,TGI,[39],4.28 µM
same,GI50,[40],4.36 µM
same,TGI,[40],25.7 µM
same,GI50,[41],10.3 µM
same,TGI,[41],22.1 µM
same,GI50,[42],1.72 µM
same,TGI,[42],3.21 µM
same,GI50,[43],2.43 µM
same,TGI,[43],7.04 µM
same,GI50,[44],1.76 µM
same,TGI,[44],3.69 µM
same,GI50,[45],2.39 µM
same,TGI,[45],5.75 µM
same,GI50,[46],5.04 µM
same,TGI,[46],17.2 µM
same,GI50,[47],2.29 µM
same,TGI,[47],5.61 µM
same,GI50,[48],2.64 µM
same,TGI,[48],7.03 µM
same,GI50,[49],2.46 µM
same,TGI,[49],6.59 µM
same,GI50,[50],1.95 µM
same,TGI,[50],4.23 µM
same,GI50,[51],3.37 µM
same,TGI,[51],12.1 µM
same,GI50,[52],3.55 µM
same,TGI,[52],11.3 µM
same,GI50,[53],2.1 µM
same,TGI,[53],4.7 µM
same,GI50,[54],1.8 µM
same,TGI,[54],3.35 µM
same,GI50,[55],2.51 µM
same,TGI,[55],6.09 µM
same,GI50,[56],2.02 µM
same,TGI,[56],4.23 µM
COc1ccc2c(c1)C(=Nc1ccc(F)c(F)c1F)c1c-2c(Nc2ccc(F)c(F)c2F)nc2ccccc12,GI50,[1],25.4 µM
same,TGI,[1],> 90.9 µM
same,GI50,[2],29.5 µM
same,TGI,[2],> 100 µM
same,GI50,[3],49 µM
same,TGI,[3],> 100 µM
same,GI50,[4],16.3 µM
same,TGI,[4],61.7 µM
same,GI50,[5],> 36.1 µM
same,TGI,[5],> 62.2 µM
same,GI50,[6],46.6 µM
same,TGI,[6],> 89.1 µM
same,GI50,[57],46.3 µM
same,TGI,[57],> 100 µM
same,TGI,[7],1.41 µM
same,GI50,[8],> 100 µM
same,TGI,[8],> 100 µM
same,GI50,[9],27.3 µM
same,TGI,[9],> 68.7 µM
same,GI50,[10],36.6 µM
same,TGI,[10],> 100 µM
same,GI50,[11],> 89.3 µM
same,TGI,[11],> 100 µM
same,GI50,[12],44 µM
same,TGI,[12],> 100 µM
same,GI50,[13],59.8 µM
same,TGI,[13],> 100 µM
same,GI50,[14],41.3 µM
same,TGI,[14],> 100 µM
same,GI50,[15],37.4 µM
same,TGI,[15],> 82.8 µM
same,GI50,[16],26.6 µM
same,TGI,[16],> 60.1 µM
same,GI50,[17],49.8 µM
same,TGI,[17],> 100 µM
same,GI50,[18],28.2 µM
same,TGI,[18],> 64.3 µM
same,GI50,[20],> 100 µM
same,TGI,[20],> 100 µM
same,GI50,[21],38.8 µM
same,TGI,[21],> 100 µM
same,GI50,[22],23.8 µM
same,TGI,[22],> 100 µM
same,GI50,[23],48 µM
same,TGI,[23],> 100 µM
same,GI50,[24],35.9 µM
same,TGI,[24],> 78.6 µM
same,GI50,[25],> 46.6 µM
same,TGI,[25],> 100 µM
same,GI50,[26],36.8 µM
same,TGI,[26],> 100 µM
same,GI50,[27],17.2 µM
same,TGI,[27],53.7 µM
same,GI50,[28],41.2 µM
same,TGI,[28],> 100 µM
same,GI50,[29],33.1 µM
same,TGI,[29],> 100 µM
same,GI50,[30],31.8 µM
same,TGI,[30],> 100 µM
same,GI50,[31],> 57.2 µM
same,TGI,[31],> 100 µM
same,GI50,[32],> 44.4 µM
same,TGI,[32],> 84.1 µM
same,GI50,[33],> 100 µM
same,TGI,[33],> 100 µM
same,GI50,[34],27.8 µM
same,TGI,[34],> 55.6 µM
same,GI50,[35],> 70.7 µM
same,TGI,[35],> 100 µM
same,GI50,[36],17.2 µM
same,TGI,[36],56.5 µM
same,GI50,[37],27.7 µM
same,TGI,[37],> 100 µM
same,GI50,[38],> 59.3 µM
same,TGI,[38],> 100 µM
same,GI50,[39],> 59.3 µM
same,TGI,[39],> 100 µM
same,GI50,[40],22 µM
same,TGI,[40],> 100 µM
same,GI50,[41],> 79.5 µM
same,TGI,[41],> 100 µM
same,GI50,[42],> 60.5 µM
same,TGI,[42],> 100 µM
same,GI50,[43],42.7 µM
same,TGI,[43],> 100 µM
same,GI50,[44],23.8 µM
same,TGI,[44],> 55.1 µM
same,GI50,[45],> 74.4 µM
same,TGI,[45],> 100 µM
same,GI50,[46],> 75.5 µM
same,TGI,[46],> 100 µM
same,GI50,[47],15.9 µM
same,TGI,[47],> 72.9 µM
same,GI50,[48],36 µM
same,TGI,[48],> 65.4 µM
same,GI50,[49],24.2 µM
same,TGI,[49],> 100 µM
same,GI50,[50],28 µM
same,TGI,[50],> 100 µM
same,GI50,[51],> 71.1 µM
same,TGI,[51],> 100 µM
same,GI50,[52],14.6 µM
same,TGI,[52],43.7 µM
same,TGI,[53],0.0392 µM
same,GI50,[54],37.7 µM
same,TGI,[54],> 83.6 µM
same,GI50,[55],> 56.7 µM
same,TGI,[55],> 100 µM
same,GI50,[56],> 58.6 µM
same,TGI,[56],> 100 µM
same,GI50,[58],50.6 µM
same,TGI,[58],> 100 µM
